The numbers were not newly measured in publication PMC6331757, “Optimization of a peptide extraction and LC–MS protocol for quantitative analysis of antimicrobial peptides” (Future Science OA, 2018), which cites them from elsewhere.

The subject of the data set is Gram-negative (e.g., Pseudomonas aeruginosa and Escherichia coli) and Gram-positive (e.g., Staphylococcus aureus) bacteria. Conditions: qualitative statement.

Turning to “VRLIVAVRIWRR [AMP 1018, synthetic antimicrobial peptide 1018 (…); also used as internal standard]”, the “antibacterial activity (kills bacteria, disperses biofilms, inhibits bacterial swarming)” value is on record as “potent antibacterial”.
